Tests used:
MET = MET biochemical kinase assay; design: species or system human; concentration or dose not given beside the values
In short: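 In this format, tyrosine phosphorylation of plate-captured human MET is followed in vitro after compound addition in ATP/divalent-cation buffer, detected by anti-phosphotyrosine-HRP with TMB substrate.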

FLK-1 receptor = target: T1, FLK-1 receptor (Mus musculus, UniProt P35918); assay: FLK-1 ELISA (kinase activity of the FLK-1 receptor in FLK-1/NIH3T3 cells, VEGF stimulated); format: cell-based
T1 construct: expressed in transfected cells; host or cells: NIH3T3 C7#3
In short: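 An ELISA using affinity-purified rabbit anti-FLK-1 antiserum on anti-rabbit IgG-coated plates measured VEGF-stimulated FLK-1 kinase activity. NIH3T3 C7#3 cells carrying FLK-1 were serum-starved (0.1% FBS) overnight, then exposed to compound (final 1:200 dilution, 0.5% DMSO) for two hours at 37 °C.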

T1 sequence (P35918 20-1345): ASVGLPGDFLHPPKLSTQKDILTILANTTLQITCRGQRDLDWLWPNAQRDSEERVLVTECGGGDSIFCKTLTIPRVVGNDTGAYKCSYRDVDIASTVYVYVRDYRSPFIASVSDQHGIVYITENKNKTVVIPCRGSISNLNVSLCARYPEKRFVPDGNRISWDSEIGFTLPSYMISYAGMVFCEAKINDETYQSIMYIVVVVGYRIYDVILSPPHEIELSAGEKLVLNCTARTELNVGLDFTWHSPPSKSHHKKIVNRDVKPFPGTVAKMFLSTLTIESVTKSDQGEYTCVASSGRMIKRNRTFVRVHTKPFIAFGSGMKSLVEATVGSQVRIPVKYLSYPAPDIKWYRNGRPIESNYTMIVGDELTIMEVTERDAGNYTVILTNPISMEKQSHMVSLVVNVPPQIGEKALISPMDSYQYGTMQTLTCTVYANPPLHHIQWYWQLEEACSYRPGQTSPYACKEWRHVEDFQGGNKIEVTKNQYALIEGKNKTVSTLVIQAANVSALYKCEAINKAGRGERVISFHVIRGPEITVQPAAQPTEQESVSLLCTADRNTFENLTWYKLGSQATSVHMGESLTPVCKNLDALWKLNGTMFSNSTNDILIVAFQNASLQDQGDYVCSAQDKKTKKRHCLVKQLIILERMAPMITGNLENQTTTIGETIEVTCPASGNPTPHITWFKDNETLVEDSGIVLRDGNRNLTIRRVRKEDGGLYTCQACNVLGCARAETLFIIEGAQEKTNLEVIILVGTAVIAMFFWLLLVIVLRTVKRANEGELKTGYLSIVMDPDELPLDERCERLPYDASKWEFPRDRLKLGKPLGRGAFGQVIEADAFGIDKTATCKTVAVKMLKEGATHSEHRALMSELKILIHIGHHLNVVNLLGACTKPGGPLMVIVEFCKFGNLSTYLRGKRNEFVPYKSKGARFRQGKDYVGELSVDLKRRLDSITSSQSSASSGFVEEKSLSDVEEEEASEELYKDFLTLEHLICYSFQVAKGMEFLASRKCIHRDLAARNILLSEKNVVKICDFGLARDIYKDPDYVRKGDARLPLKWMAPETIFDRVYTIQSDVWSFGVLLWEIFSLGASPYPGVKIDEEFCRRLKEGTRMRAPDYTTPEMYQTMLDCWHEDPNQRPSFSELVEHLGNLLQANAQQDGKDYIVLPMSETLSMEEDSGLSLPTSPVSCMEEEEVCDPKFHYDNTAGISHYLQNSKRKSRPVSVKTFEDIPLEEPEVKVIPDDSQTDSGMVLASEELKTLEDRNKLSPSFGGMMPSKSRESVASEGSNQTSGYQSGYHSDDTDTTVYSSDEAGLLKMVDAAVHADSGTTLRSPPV

Compound | Met Kinase % Inhibition (MET) | Fik Kinase %Inhibition (FLK-1 receptor)
COc1ccc(C=C2C(=O)Nc3c(Br)cc(Br)cc32)cc1 [10726/A11] | 70.8% | 0.5%
O=C1Nc2c(Br)cc(Br)cc2C1=Cc1cc(O)c2c(c1O)CCCC2 [10726/A07] | 101.4% | -72.3%
O=C1Nc2c(Br)cc(Br)cc2C1=Cc1ccc(F)cc1 [10717/A05] | 35.6% | -2.6%
COC(=O)Cc1c(Cl)[nH]c(C=C2C(=O)Nc3ccc(S(=O)(=O)N4CCOCC4)cc32)c1C(=O)OC [10725/F09] | 48.5% | 6.8%
O=C1Nc2ccc(CCCl)cc2C1=Cc1sccc1Br [10725/G02] | 30.8% | -3.7%
Cc1c(Br)ccc2c1C(=Cc1ccc(N3CCOCC3)cc1)C(=O)N2 [10725/C08] | 28.0% | -8.7%
O=C1Nc2ccc(S(=O)(=O)N3CCOCC3)cc2C1=Cc1sccc1Br [10725/F02] | 27.8% | 5.8%
COc1ccc(Br)c(C=C2C(=O)Nc3ccc(S(=O)(=O)Nc4ccc(C(F)(F)F)cc4)cc32)c1O [10725/E03] | 60.9% | -0.8%
Cc1ccc(C=C2C(=O)Nc3ccc(CCCl)cc32)o1 [10725/G04] | 47.1% | 6.1%
Cc1c(Br)ccc2c1C(=Cc1ccc(Br)o1)C(=O)N2 [10726/C05] | 58.0% | 4.0%
O=C1Nc2ccc(I)cc2C1=Cc1ccc(Br)o1 [10726/B05] | 96.8% | 13.2%
COc1ccc(Br)c(C=C2C(=O)Nc3ccc(CCCl)cc32)c1O [10725/G03] | 58.6% | -6.9%
COC(=O)Cc1c(Cl)[nH]c(C=C2C(=O)Nc3ccc(S(=O)(=O)Nc4ccc(C(F)(F)F)cc4)cc32)c1C(=O)OC [10725/E09] | 22.4% | 7.0%
O=CN1CCN(c2ccc(C=C3C(=O)Nc4ccc(CCCl)cc43)cc2)CC1 [10725/G07] | 39.7% | 4.8%
O=C1Nc2ccc(S(=O)(=O)Nc3ccc(C(F)(F)F)cc3)cc2C1=Cc1ccc(N2CCOCC2)cc1 [10725/E08] | 39.7% | 12.1%
O=C1Nc2ccc(S(=O)(=O)N3CCOCC3)cc2C1=Cc1ccc(Br)cc1 [10717/F08] | 64.0% | -0.7%
CCOc1ccccc1C=C1C(=O)Nc2ccc(CCCl)cc21 [10717/G02] | 30.7% | 14.9%
Cc1cc(C=C2C(=O)Nc3ccc(Br)c(C)c32)[nH]n1 [10725/C05] | 31.7% | -37.0%
Cc1cc(C=C2C(=O)Nc3ccc(Br)c(C)c32)cc(C(C)(C)C)c1O [10726/C04] | 91.7% | 12.3%
Cc1c(Br)ccc2c1C(=Cc1sccc1Br)C(=O)N2 [10725/C02] | 6.3% | 7.0%
Cc1cc(C=C2C(=O)Nc3ccc(I)cc32)cc(C(C)(C)C)c1O [10726/B04] | 78.9% | 16.8%
Cc1cc(C=C2C(=O)Nc3ccc(S(=O)(=O)N4CCOCC4)cc32)[nH]n1 [10725/F05] | 15.5% | -0.8%
CNS(=O)(=O)c1ccc2c(c1)C(=Cc1sccc1Br)C(=O)N2 [10725/D02] | 14.0% | -3.6%
Cc1ccc(C=C2C(=O)Nc3ccc(Br)c(C)c32)o1 [10725/C04] | 75.9% | -27.3%
Cc1c(Br)ccc2c1C(=Cc1c(Br)cnn1-c1ccc(Cl)cc1)C(=O)N2 [10725/C10] | -0.6% | 8.7%
CCc1ccc(C=C2C(=O)Nc3c(Br)cc(Br)cc32)s1 [10726/A10] | 58.9% | 3.7%
COc1cccc(O)c1C=C1C(=O)Nc2ccc(S(=O)(=O)N3CCOCC3)cc21 [10717/F10] | 54.6% | -4,4%
O=C1Nc2ccc(F)cc2C1=C1C(=O)Nc2ccc(I)cc21 [10726/B08] | 60.2% | 12.2%

Compound | Met Kinase % Inhibition (MET) | Fik Kinase %Inhibition (FLK-1 receptor)
COc1ccc(Br)c(C=C2C(=O)Nc3ccc(S(=O)(=O)N4CCOCC4)cc32)c1O [10725/F03] | 63.2% | 4.3%
COc1cc(C)cc(O)c1C=C1C(=O)Nc2ccc(S(=O)(=O)N3CCOCC3)cc21 [10725/F06] | 41.8% | -1.0%
CNS(=O)(=O)c1ccc2c(c1)C(=Cc1c(O)cc(C)cc1OC)C(=O)N2 [10725/D06] | 24.7% | -0.5%
COc1ccc(C=C2C(=O)Nc3ccc(I)cc32)cc1 [10726/B11] | 64.4% | 7.4%
CNS(=O)(=O)c1ccc2c(c1)C(=Cc1c(Br)ccc(OC)c1O)C(=O)N2 [10725/D03] | 72.9% | -11.3%
O=C1Nc2ccc(I)cc2C1=Cc1cc(O)c2c(c1O)CCCC2 [10726/B07] | 98.5% | -36.5%
O=C1Nc2ccc(S(=O)(=O)Nc3ccc(C(F)(F)F)cc3)cc2C1=Cc1c(Br)cnn1-c1ccc(Cl)cc1 [10725/E10] | -4.7% | 9.3%
COC(=O)Cc1c(Cl)[nH]c(C=C2C(=O)Nc3ccc(CCCl)cc32)c1C(=O)OC [10725/G09] | 4.7% | 15.2%
CNS(=O)(=O)c1ccc2c(c1)C(=Cc1c[nH]cn1)C(=O)N2 [10725/D11] | 100.5% | 13.6%
O=C1Nc2ccc(CCCl)cc2C1=Cc1cccs1 [10717/G03] | 4.5% | 1.8%
Cc1c(Br)ccc2c1C(=Cc1cc(O)c3c(c1O)CCCC3)C(=O)N2 [10726/C07] | 84.9% | -17.0%
CNS(=O)(=O)c1ccc2c(c1)C(=Cc1[nH]c(Cl)c(CC(=O)OC)c1C(=O)OC)C(=O)N2 [10725/D09] | 28.0% | -0.9%
Cc1ccc(C=C2C(=O)Nc3ccc(S(=O)(=O)N4CCOCC4)cc32)o1 [10725/F04] | 38.1% | -6.9%
O=CN1CCN(c2ccc(C=C3C(=O)Nc4ccc(S(=O)(=O)Nc5ccc(C(F)(F)F)cc5)cc43)cc2)CC1 [10725/E07] | 45.3% | 9.7%
O=C1Nc2ccc(CCCl)cc2C1=Cc1ccc(N2CCOCC2)cc1 [10725/G08] | 47.3% | -14.8%
Cc1cc(C=C2C(=O)Nc3ccc(CCCl)cc32)[nH]n1 [10725/G05] | 15.6% | -18.3%
COc1cc(C)cc(O)c1C=C1C(=O)Nc2ccc(CCCl)cc21 [10725/G06] | 35.8% | 21.7%
O=C1Nc2ccc(S(=O)(=O)Nc3ccc(C(F)(F)F)cc3)cc2C1=Cc1sccc1Br [10725/E02] | 40.2% | -5.6%
Cc1[nH]c(C=C2C(=O)Nc3ccc(S(=O)(=O)N4CCOCC4)cc32)c(Br)c1Br [10717/F11] | 81.5% | 1.4%
O=C1Nc2c(Br)cc(Br)cc2C1=Cc1ccc(Br)o1 [10726/A05] | 75.2% | -7.1%
O=CN1CCN(c2ccc(C=C3C(=O)Nc4ccc(S(=O)(=O)N5CCOCC5)cc43)cc2)CC1 [10725/F07] | 67.8% | 6.9%
CCOC(=O)c1[nH]c(C=C2C(=O)Nc3c(Br)cc(Br)cc32)c(C(=O)OC)c1C [10726/A03] | 70.1% | -2.6%
CCOC(=O)c1[nH]c(C=C2C(=O)Nc3ccc(Br)c(C)c32)c(C(=O)OC)c1C [10726/C03] | 38.9% | 24.9%
O=C1Nc2ccc(S(=O)(=O)N3CCOCC3)cc2C1=Cc1c(Br)cnn1-c1ccc(Cl)cc1 [10725/F10] | 14.2% | 4.8%
Cc1ccc(C=C2C(=O)Nc3ccc(S(=O)(=O)N4CCOCC4)cc32)s1 [10717/F07] | 37.6% | 2.0%
O=C1Nc2ccc(CCCl)cc2C1=Cc1c[nH]cn1 [10725/G11] | 25.7% | -28.0%
Cc1cn(C)cc1C=C1C(=O)Nc2ccc(Br)c(C)c21 [10726/C06] | 42.6% | 23.8%
